Test results: patent US7776833B2, “Use of cyclic bioisosters of purine system derivatives for treating diseases produced by disorders of niterergic and dopaminergic systems” (priority 2003, dated 2010)

Columns and labels:
Assay type in all cases: in vivo, Wistar rats
[1] = test system: apomorphine-dependent erection; assay: Apomorphine-dependent erection in low-potency rats; conditions: compound 5 x 10 mg/kg intraperitoneally every 48 hours + apomorphine 0.1 mg/kg subcutaneously; 20 minutes monitoring; one value for the two compounds of the line
Excerpt: One of the mechanisms regulating the sexual function of mammals is associated with functioning of the dopaminergic system of the brain. It is well known that a non-selective D1/D2 agonist apomorphine in low doses causes penile erection in rodents (Giuliano F., Allard J. Dopamine and male sexual function. Eur. Urol., 2001, 40 (6), 601-608; Giuliano F., Allard J., Rampin O. et. al. Pro-erectile effect of systemic apomorphine: existence of a spinal site action. J. Urol., 2002, 167 (1), 402-406; Brien S. E., Smallegange C., Gofton W. T., et. al. Development of a rat model of sexual performance anxiety: effect of behavioral and pharmacological hyperadrenergic stimulation on apomorphine-induced erections. Int. J. Impot. Res., 2002, 14 (2), 107-115.). In this connection, we have studied the effects of the compounds according to the invention on apomorphine-dependent erection in rats.
Nine groups of adult male Wistar rats weighing 350-450 g maintained at the normal (not inverted) light cycle were used in the experiments. To study the effect of the compounds on the sexual function, low-potency animals with a single erection were selected. Control group No. 1 (n=7) was composed of animals not injected with the compounds according to the invention. The animals of groups Nos. 2-9 (n=7) were injected with one of the compounds according to the invention selected from the group of compounds 2, 8, 9, 15, 19, 25, 31, 36, intraperitoneally in a course of 5 injections at a dose of 10 mg/kg with an interval between the injections 48 hours. Apomorphine was dissolved in 0.1% aqueous solution of ascorbic acid and then was injected to all animal subcutaneously at a dose of 0.1 mg/kg during 24-28 hours after the last injection of the compounds according to the invention. The monitoring of sexual activity was made individually for each animal immediately after the administration of apomorphine; the monitoring time was 20 minutes. The following indices were registered: the time of beginning of the first erection, time intervals between the erections, the number of erections for the entire period of observation.
The statistical analysis of the results was made using T-test and ξ-square test. The results are given in Table 3 as means±standard error of means.

[2] = test system: physical dependence from morphine (morphine abstinence); assay: Morphine abstinence syndrome, signs scored in the open field test; conditions: Morphine − (morphine + compound); compound 3 x 20 mg/kg intramuscularly; one value for the three compounds
[3] = test system: nitrites and nitrates (NOx-); assay: Measurement of nitrates/nitrites (NOx-) in brain regions after the morphine abstinence experiment; conditions: 3 x 20 mg/kg intramuscularly
Procedure, shortened: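 Rat brain regions homogenized in 20 mM HEPES pH 7.5 at 4 °C; deproteinized supernatants treated with nitrate reductase, 25 μM NADPH, 25 μM FAD (37 °C, 30 min), then DAN in acid; naphthotriazole fluorescence (ex 365/em 405 nm) against sodium nitrate standard, expressed as nmol/mg protein (Bradford).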

[4] = test system: nitric oxide synthase (NOS); assay: Nitric oxide synthase activity in brain regions, radiometric [3H]L-citrulline method; conditions: 3 x 20 mg/kg intramuscularly
Procedure, shortened: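 Rat cortex, hippocampus, mesencephalon, striatum, brainstem, hypothalamus and cerebellum were homogenized in 20 mM HEPES pH 7.5, and the 11000 g supernatant was incubated 15-60 min at 37 °C with [3H]L-arginine, 0.2 mM CaCl2, FAD, FMN, NADPH and BH4. [3H]L-citrulline was counted after Dowex removal of arginine. Ca2+-dependent/independent activity was split using EDTA ± L-NAME, per mg Bradford protein.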

[5] = Groups Nos. 3-14, compound without morphine, one value for all 12 compounds
[6] = Morphine + compound, one value for the three compounds

## Nc1ccnc2c(=O)n([C@@H]3O[C@H](CO)[C@@H](O)[C@H]3O)[nH]c(=O)c12.[Na] [Compound 2, sodium salt of 4-amino-7-(β-D-ribofuranosile)pyrido[2,3-d]-6H-pyridazine-5,8-dione]
[1]
  Latent period of first erection: 5.21 ± 0.30 min
  Number of erection for the entire period of observation: 3.13 ± 0.35
  Time between 1st and 2nd erections: 3.94 ± 0.60 min
  Time between 3rd and 2nd erections: 5.52 ± 1.14 min

## O=c1[nH][nH]c(=O)c2ncccc12.[K] [Compound 8, potassium salt of pyrido [2,3-d]-6H-pyridazine-5,8-dione]
[1]
  Latent period of first erection: 5.21 ± 0.30 min
  Number of erection for the entire period of observation: 3.13 ± 0.35
  Time between 1st and 2nd erections: 3.94 ± 0.60 min
  Time between 3rd and 2nd erections: 5.52 ± 1.14 min

## O=c1[nH]n([C@@H]2O[C@H](CO)[C@@H](O)[C@H]2O)c(=O)c2ccccc12.[Na] [Compound 9, sodium salt of 2-(β-D-ribofuranosile)benzo[d]-3H-pyridazine-1,4-dione]
[1]
  Latent period of first erection: 5.09 ± 0.27 min
  Number of erection for the entire period of observation: 3.24 ± 0.39
  Time between 1st and 2nd erections: 3.87 ± 0.59 min
  Time between 3rd and 2nd erections: 5.19 ± 0.78 min

## Nc1cccc2c(=O)[nH][nH]c(=O)c12.[Na] [Compound 15, sodium salt of 5-amino-benzo[d]-3H-pyridazine-1,4-dione]
[1]
  Latent period of first erection: 5.09 ± 0.27 min
  Number of erection for the entire period of observation: 3.24 ± 0.39
  Time between 1st and 2nd erections: 3.87 ± 0.59 min
  Time between 3rd and 2nd erections: 5.19 ± 0.78 min

## O=c1[nH]n([C@@H]2O[C@H](CO)[C@@H](O)[C@H]2O)c(=O)c2nccnc12.[Na] [Compound 19, sodium salt of 7-(β-D-ribofuranosile)pyrazino[2,3-d]-6H-pyridazine-5,8-dione]
[1]
  Latent period of first erection: 5.24 ± 0.19 min
  Number of erection for the entire period of observation: 3.29 ± 0.27
  Time between 1st and 2nd erections: 3.75 ± 0.64 min
  Time between 3rd and 2nd erections: 5.12 ± 0.87 min

## O=c1[nH][nH]c(=O)c2ncncc12.[Li] [Compound 35, lithium salt of pyrimido[4,5-d]-6H-pyridazine-5,8-dione]
[2]
  Authentic differences (ξ-square criterion) in appearance of signs of abstinence: <<Wet dog>> shakes: 1.0000
  Authentic differences (ξ-square criterion) in appearance of signs of abstinence: Aggression: 0.8456
  Authentic differences (ξ-square criterion) in appearance of signs of abstinence: Convulsions: 0.5578
  Authentic differences (ξ-square criterion) in appearance of signs of abstinence: Diarrhea: 0.0001
  Authentic differences (ξ-square criterion) in appearance of signs of abstinence: Dyspnea: 0.0685
  Authentic differences (ξ-square criterion) in appearance of signs of abstinence: Forelimb jogging: 0.9321
  Authentic differences (ξ-square criterion) in appearance of signs of abstinence: Grit with teeth: 0.7003
  Authentic differences (ξ-square criterion) in appearance of signs of abstinence: Mastication: 0.1888
  Authentic differences (ξ-square criterion) in appearance of signs of abstinence: Piloerection: 0.2345
  Authentic differences (ξ-square criterion) in appearance of signs of abstinence: Ptosis: 0.0232
  Authentic differences (ξ-square criterion) in appearance of signs of abstinence: Rhinorrhea: 0.2935
  Authentic differences (ξ-square criterion) in appearance of signs of abstinence: Squeak when touched: 0.2035
[3]; [5]
  Nitrites, brainstem: 6.31 ± 0.58 nmol/mg of protein
  Nitrites, cerebellum: 6.66 ± 0.63 nmol/mg of protein
  Nitrites, cerebral cortex: 4.31 ± 0.37 nmol/mg of protein
  Nitrites, hippocampus: 6.47 ± 0.72 nmol/mg of protein
  Nitrites, hypothalamus: 6.77 ± 0.83 nmol/mg of protein
  Nitrites, midbrain: 6.65 ± 0.70 nmol/mg of protein
  Nitrites, striatum: 6.11 ± 0.29 nmol/mg of protein
[3]; [6]
  Nitrites, brainstem: 6.87 ± 0.81 nmol/mg of protein
  Nitrites, cerebellum: 5.93 ± 0.54 nmol/mg of protein
  Nitrites, cerebral cortex: 4.84 ± 0.31 nmol/mg of protein
  Nitrites, hippocampus: 5.31 ± 0.33 nmol/mg of protein
  Nitrites, hypothalamus: 6.77 ± 0.46 nmol/mg of protein
  Nitrites, midbrain: 5.95 ± 0.52 nmol/mg of protein
  Nitrites, striatum: 3.57 ± 0.42 nmol/mg of protein
[4]; [5]
  Activity of NOS, hippocampus: 3.09 ± 0.16 nmol/min/mg of protein
  Activity of NOS, hypothalamus: 5.45 ± 0.24 nmol/min/mg of protein
  Activity of NOS, midbrain: 2.60 ± 0.29 nmol/min/mg of protein
  Activity of NOS, striatum: 1.26 ± 0.08 nmol/min/mg of protein
[4]; [6]
  Activity of NOS, hippocampus: 2.65 ± 0.15 nmol/min/mg of protein
  Activity of NOS, hypothalamus: 5.56 ± 0.34 nmol/min/mg of protein
  Activity of NOS, midbrain: 1.89 ± 0.27 nmol/min/mg of protein
  Activity of NOS, striatum: 1.34 ± 0.09 nmol/min/mg of protein

## O=c1[nH][nH]c(=O)c2c(Br)ncnc12.[K] [Compound 37, potassium salt of 4-bromine-pyrimido[4,5-d]-6H-pyridazine-5,8-dione]
[2]
  Authentic differences (ξ-square criterion) in appearance of signs of abstinence: <<Wet dog>> shakes: 1.0000
  Authentic differences (ξ-square criterion) in appearance of signs of abstinence: Aggression: 0.8456
  Authentic differences (ξ-square criterion) in appearance of signs of abstinence: Convulsions: 0.5578
  Authentic differences (ξ-square criterion) in appearance of signs of abstinence: Diarrhea: 0.0001
  Authentic differences (ξ-square criterion) in appearance of signs of abstinence: Dyspnea: 0.0685
  Authentic differences (ξ-square criterion) in appearance of signs of abstinence: Forelimb jogging: 0.9321
  Authentic differences (ξ-square criterion) in appearance of signs of abstinence: Grit with teeth: 0.7003
  Authentic differences (ξ-square criterion) in appearance of signs of abstinence: Mastication: 0.1888
  Authentic differences (ξ-square criterion) in appearance of signs of abstinence: Piloerection: 0.2345
  Authentic differences (ξ-square criterion) in appearance of signs of abstinence: Ptosis: 0.0232
  Authentic differences (ξ-square criterion) in appearance of signs of abstinence: Rhinorrhea: 0.2935
  Authentic differences (ξ-square criterion) in appearance of signs of abstinence: Squeak when touched: 0.2035
[3]; [5]
  Nitrites, brainstem: 6.31 ± 0.58 nmol/mg of protein
  Nitrites, cerebellum: 6.66 ± 0.63 nmol/mg of protein
  Nitrites, cerebral cortex: 4.31 ± 0.37 nmol/mg of protein
  Nitrites, hippocampus: 6.47 ± 0.72 nmol/mg of protein
  Nitrites, hypothalamus: 6.77 ± 0.83 nmol/mg of protein
  Nitrites, midbrain: 6.65 ± 0.70 nmol/mg of protein
  Nitrites, striatum: 6.11 ± 0.29 nmol/mg of protein
[3]; [6]
  Nitrites, brainstem: 6.87 ± 0.81 nmol/mg of protein
  Nitrites, cerebellum: 5.93 ± 0.54 nmol/mg of protein
  Nitrites, cerebral cortex: 4.84 ± 0.31 nmol/mg of protein
  Nitrites, hippocampus: 5.31 ± 0.33 nmol/mg of protein
  Nitrites, hypothalamus: 6.77 ± 0.46 nmol/mg of protein
  Nitrites, midbrain: 5.95 ± 0.52 nmol/mg of protein
  Nitrites, striatum: 3.57 ± 0.42 nmol/mg of protein
[4]; [5]
  Activity of NOS, hippocampus: 3.09 ± 0.16 nmol/min/mg of protein
  Activity of NOS, hypothalamus: 5.45 ± 0.24 nmol/min/mg of protein
  Activity of NOS, midbrain: 2.60 ± 0.29 nmol/min/mg of protein
  Activity of NOS, striatum: 1.26 ± 0.08 nmol/min/mg of protein
[4]; [6]
  Activity of NOS, hippocampus: 2.65 ± 0.15 nmol/min/mg of protein
  Activity of NOS, hypothalamus: 5.56 ± 0.34 nmol/min/mg of protein
  Activity of NOS, midbrain: 1.89 ± 0.27 nmol/min/mg of protein
  Activity of NOS, striatum: 1.34 ± 0.09 nmol/min/mg of protein
